Data: paper PMC7751951 (Cancer chemotherapy and pharmacology, 2015)

Assays:
[1] = single-agent docetaxel 150–235 mg/m^2, children and adolescents with refractory solid tumors; cited from earlier work
[2] = Toxicity, DLT and MTD in phase I trial
[3] = early clinical trials in adults; cited from earlier work
[4] = test system: Breast Cancer Resistance Protein (BCRP/ABCG2); conditions: cited from earlier work
Pgp = conditions: adults, 2 mg/kg IV over 30 min; rhodamine uptake in CD56+ lymphocytes; cited from earlier work
[5] = test system: ATPase activity of the Pgp drug efflux pump; conditions: introduction statement, no reference given; cited from earlier work
[6] = adults, 2 mg/kg IV over 30 min; cited from earlier work
[7] = cited from earlier work
[8] = human, in vivo, 21 days
[9] = Plasma pharmacokinetics of tariquidar alone; type: in vivo, human (children and adolescents); conditions: human, intravenous, tariquidar in combination with chemotherapy, at all dose levels
[10] = test system: recurrent or refractory solid tumors; assay: Tumor response; type: in vivo, human (children and adolescents)

Q: For CC(=O)O[C@@]12CO[C@@H]1C[C@H](O)[C@@]1(C)C(=O)[C@H](O)C3=C(C)[C@@H](OC(=O)[C@H](O)[C@@H](NC(=O)OC(C)(C)C)c4ccccc4)C[C@@](O)([C@@H](OC(=O)c4ccccc4)[C@H]21)C3(C)C [Docetaxel], which “platelet counts less than 50,000/μL” value [1] is on record?
A: not observed

Q: What about the “participants with grade 3 thrombocytopenia (platelet count ≥10,000, <50,000/μL)” value ([2]; docetaxel in combination with tariquidar, three of nine participants) of the same molecule?
A: 33%

Q: For CC(=O)O[C@H]1C(=O)[C@@]2(C)[C@H]([C@H](OC(=O)c3ccccc3)[C@]3(O)C[C@H](OC(=O)[C@H](O)[C@@H](NC(=O)c4ccccc4)c4ccccc4)C(C)=C1C3(C)C)[C@]1(OC(C)=O)CO[C@@H]1C[C@@H]2O [paclitaxel], which “increase of systemic exposure in combination with tariquidar” value [3] is on record?
A: 44%

Q: What does the source list for COc1cc2c(cc1OC)CN(CCc1ccc(NC(=O)c3cc(OC)c(OC)cc3NC(=O)c3cnc4ccccc4c3)cc1)CC2 [Tariquidar]?
A: inhibition of Breast Cancer Resistance Protein (BCRP/ABCG2) [4]: inhibit; time for which maximum inhibition of Pgp was maintained (Pgp): 24 h; effect on ATPase activity of the Pgp drug efflux pump [5]: inhibits; area under the concentration time curve (AUC0–48) [6]: 12.6 µM·h; clearance [6]: 160 mL/min/m^2; half-life [6]: 26 h; tolerability in adults [7]: well tolerated; maximum tolerated dose of tariquidar ([2]; escalation up to 2 mg/kg): No maximum tolerated dose was achieved; tariquidar-related dysgeusia (n = 3), grade [8]: 1; tariquidar-related hypotension (n = 2), grade [8]: 2; tariquidar-related nausea (n = 1), grade [8]: 1; tariquidar-related peripheral edema (n = 1), grade [8]: 2; tariquidar-related pruritus (n = 1), grade [8]: 1; Cmax [9]: > 2000 nM

Q: Which results are given for COc1cccc2c1C(=O)c1c(O)c3c(c(O)c1C2=O)C[C@@](O)(C(=O)CO)C[C@@H]3O[C@H]1C[C@H](N)[C@H](O)[C@H](C)O1 [Doxorubicin]?
A: increase of systemic exposure in combination with tariquidar [3]: 26%; Response ([10]; person, metastatic adrenocortical carcinoma, two cycles of tariquidar in combination with doxorubicin): partial response; Best response [cycle] ([10]; subject 014, rhabdomyosarcoma, with tariquidar 2 mg/kg): partial response

Q: For CCC1=C[C@@H]2CN(C1)Cc1c([nH]c3ccccc13)[C@@](C(=O)OC)(c1cc3c(cc1OC)N(C)[C@H]1[C@@](O)(C(=O)OC)[C@H](OC(C)=O)[C@]4(CC)C=CCN5CC[C@]31[C@@H]54)C2 [Vinorelbine], which “change in pharmacokinetics in combination with tariquidar” value [3] is on record?
A: No change

Q: What about the “Best response [cycle]” value ([10]; subject 009, pancreatoblastoma, with tariquidar 1.5 mg/kg) of the same molecule?
A: complete radiographic response
